Measured values reported in patent EP4711372A1, “CRYSTAL FORM OF HETEROCYCLIC COMPOUND, SALT THEREOF, CRYSTAL FORM OF SALT THEREOF, AND USE” (Hubei Bio-Pharmaceutical Industrial Technological Institute …, priority 2023, dated 2024).
pIC50: −log10 of the molar value.

Columns and labels:
[1] = test system: mouse IPF treatment model; assay: Efficacy test on mouse IPF treatment model (Bleomycin-induced); type: in vivo, mice; conditions: mean, oral gavage, 14 consecutive days from day 7
Experimental: (§1) Male mice were adaptively fed for 1 to 2 weeks and after reaching the standard weight (25 g), the IPF model (idiopathic pulmonary fibrosis model) was induced with a certain dose of Bleomycin. On the day of modeling, the animals were randomly divided into a model group and an administration group according to their weight, in which the administration groups were administered Nintedanib (60 mg/kg, qd), low-dose compound I-3B obtained in Example 1 (1 mg/kg, bid), and high-dose compound I-3B obtained in Example 1 (2.5 mg/kg, bid) by oral gavage for 14 consecutive days starting from day 7 while the vehicle control group was administered blank vehicle. During the administration period, the animals were weighed twice a week. At the end of the last day of administration, the animals were euthanized. The lungs were removed from the thyroid cartilage (without perfusion), slowly perfused with 10% formalin until both lungs were filled, and fixed in 10% formalin 5 to 10 times the volume of the tissues after the trachea was ligated. The left lung tissues were embedded in paraffin wax, sectioned, and stained with HE and Masson Trichrome. The sections were subjected to panoramic scanning using a Hamamatsu NanoZoomer Digital Pathology (S210) slide scanner for pathological analysis.

15-PGDH = biological target: T1, 15-PGDH (Homo sapiens, UniProt P15428); assay: 15-PGDH enzyme inhibition assay (fluorescence, NAD+/PGE2); type: biochemical; conditions: 15-PGDH inhibition
T1 construct: purchased R&D Systems 5660-DH-010
T1 sequence (P15428 1-266): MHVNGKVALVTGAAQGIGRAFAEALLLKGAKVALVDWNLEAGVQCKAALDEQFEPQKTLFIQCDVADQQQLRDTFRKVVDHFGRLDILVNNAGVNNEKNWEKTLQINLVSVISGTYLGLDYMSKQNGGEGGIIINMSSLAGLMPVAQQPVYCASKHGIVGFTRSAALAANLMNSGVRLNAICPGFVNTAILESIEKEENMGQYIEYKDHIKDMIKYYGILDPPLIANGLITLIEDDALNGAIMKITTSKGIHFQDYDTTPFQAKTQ
Experimental: 15-PGDH (R&D Systems, Cat. No. 5660-DH-010) was prepared to twice the final concentration, i.e., 30 nM, using Assay Buffer (50 mM Tris-HCl, pH 7.5, 0.01% Tween 20 by volume). 15-PGDH was then added to a 384-well white plate (Cisbio Bioassays, Cat. No. 66PL384025) at 8 µL/well. Negative control wells (with Assay Buffer only and without enzyme) were set. The compound was then prepared to 4 times the final concentration using Assay Buffer, i.e., diluted 3-fold to 10 concentrations starting from 4000 nM. The compound was added to the above white plate at 4 µL/well, mixed well, centrifuged at 1000 rpm for 1 minute, and incubated at 25°C for 10 minutes. Both positive control wells (with 15-PGDH only) and negative control wells (without 15-PGDH) were set. A mixture of NAD^+ (Select, Cat. No. S2518) and PGE2 (R&D Systems, Cat. No.:2296110) was then prepared using Assay Buffer. NAD^+ and PGE2 were prepared to four times their final concentrations, i.e., 2 mM and 0.12 mM, respectively, using Assay Buffer. The mixture was then added to the above white plate at 4 µL/well, mixed well, centrifuged at 1000 rpm for 1 minute, and incubated at 25°C for 30 minutes for the reaction. The fluorescence was measured at an excitation wavelength of 340 nm and an emission wavelength of 485 nm using a TECAN SPARK 20M microplate reader. The IC50 value was calculated using four-parameter fitting with GraphPad Prism 8.0.

[2] = test system: mouse IPF prevention model; assay: Efficacy test on mouse IPF prevention model (Bleomycin-induced); type: in vivo, mice; conditions: mean; compound I-3B 2.5 mg/kg bid, oral gavage, 21 consecutive days
Experimental: as §1, with “once a day (qd))” for “qd), low-dose compound I-3B obtained in Example 1 (1 mg/kg, bid),”, “and” for “and high-dose”, “twice a day (bid))” for “bid)”, “21” for “14”, “days” for “days starting from day 7”, “every 3 days.” for “twice a week.”

IBD in mice = assay: Efficacy on IBD in mice (DSS-induced); type: in vivo, C57BL/6 mice; conditions: for CL (colon length) / CL/CW/BW / CW (colon weight) / DAI / body weight / inflammatory cell infiltration score (histopathological examination of colon tissues) / tissue injury score (histopathological examination of colon tissues): compared with G2 model group; for Colon length CL / Colon weight CW: day 0 to day 9, necropsy day 10
Experimental: The mice in G2 to G6 were given 2% DSS aqueous solution on day 0 to day 6, normal water on […], vehicle/positive/test substance on day 0 to day 9, and euthanized on day 10 for necropsy. Colon weight (CW) and colon length (CL) were measured and colon tissues […] were subjected to histopathological examination.

[3] = Pharmacokinetics in mice (oral gavage); type: in vivo; conditions: mouse, plasma, male CD-1 mice, 10 mg/kg
Experimental: The pharmacokinetic properties of the compounds obtained in Example 1 in mice were determined with reference to the following experimental methods.
Three male CD-1 mice were administered by oral gavage at a dose of 10 mg/kg, and the vehicle was 5% DMSO + 10% Solutol + 85% Saline. The mice were fasted overnight, and the time points of blood collection were before administration and at 15 minutes, 30 minutes, 1 hour, 2 hours, 4 hours, 8 hours, and 24 hours after administration. Blood samples were centrifuged at 6,800 g for 6 minutes at 2 to 8°C, and plasma was collected and stored at - 80°C. 10 µL of plasma at each time point was taken and added with 200 µL of methanol containing 100 ng/mL internal standard. The mixture was vortexed, mixed well, and centrifuged at 18,000 g for 7 minutes at 2 to 8°C. 200 µL of the mixture was transferred to a 96-well injection plate for LC-MS/MS quantitative analysis. The main pharmacokinetic parameters were analyzed using WinNonlin 7.0 software with non-compartmental model.

What does the source list for `Cn1nc2cc(N3C[C@H]4C[C@H]4c4cc(C(=O)N5CCC(F)(F)CC5)cnc43)ccn2c1=O` (single isomer, unassigned) [compound I-3B]?
Total pulmonary fibrosis score ([1]; high-dose 2.5 mg/kg bid): 2.6; Total pulmonary fibrosis score ([1]; low-dose 1 mg/kg bid): 2.74; pIC50 (15-PGDH): 8.45; Total pulmonary fibrosis score [2]: 3.34; IBD symptoms and tissue injury in mice (IBD in mice; 2.5 mg/kg and 5 mg/kg, efficacy better than that of the positive control): significantly improve; CL (colon length) (IBD in mice; G4, 2.5 mg/kg-bid): significant increase; CL/CW/BW (IBD in mice; G4, 2.5 mg/kg-bid): significant decrease; CW (colon weight) (IBD in mice; G4, 2.5 mg/kg-bid): significant decrease; DAI (IBD in mice; G4, 2.5 mg/kg-bid): significant decrease; body weight (IBD in mice; G4, 2.5 mg/kg-bid): increase; inflammatory cell infiltration score (histopathological examination of colon tissues) (IBD in mice; G4, 2.5 mg/kg-bid): significant decrease; tissue injury score (histopathological examination of colon tissues) (IBD in mice; G4, 2.5 mg/kg-bid): significant decrease; CL (colon length) (IBD in mice; G5, 5 mg/kg-bid): significant increase; CL/CW/BW (IBD in mice; G5, 5 mg/kg-bid): significant decrease; CW (colon weight) (IBD in mice; G5, 5 mg/kg-bid): significant decrease; DAI (IBD in mice; G5, 5 mg/kg-bid): significant decrease; body weight (IBD in mice; G5, 5 mg/kg-bid): significant increase; inflammatory cell infiltration score (histopathological examination of colon tissues) (IBD in mice; G5, 5 mg/kg-bid): significant decrease; tissue injury score (histopathological examination of colon tissues) (IBD in mice; G5, 5 mg/kg-bid): significant decrease; Colon length CL (IBD in mice; high-dose group (5 mg/kg)): 6.50 cm; Colon weight CW (IBD in mice; high-dose group (5 mg/kg)): 0.16 g; Colon length CL (IBD in mice; low-dose group (2.5 mg/kg)): 6.67 cm; Colon weight CW (IBD in mice; low-dose group (2.5 mg/kg)): 0.17 g; AUC(0-t) [3]: 33200 ng·h/mL; Cmax [3]: 4480 ng/mL
